Reference: PubChem BioAssay (NCI)
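Tested at 5 concentrations; 48 h exposure; 96-well plates; endpoints linearly interpolated, else capped at highest concentration. At the GI50, growth is halved. TGI: total growth inhibition.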

Tests used:
Assay in all cases: NCI anticancer screen, dose series, 48 h
786-0 renal = test system: 786-0 renal
A549 NSCLC = test system: A549 NSCLC
ACHN renal = test system: ACHN renal
CAKI-1 renal = test system: CAKI-1 renal
CCRF-CEM leukemia = test system: CCRF-CEM leukemia
COLO 205 colon = test system: COLO 205 colon
DLD-1 colon = test system: DLD-1 colon
DMS 114 small cell lung = test system: DMS 114 small cell lung
DMS 273 small cell lung = test system: DMS 273 small cell lung
EKVX NSCLC = test system: EKVX NSCLC
HCC-2998 colon = test system: HCC-2998 colon
HCT-116 colon = test system: HCT-116 colon
HCT-15 colon = test system: HCT-15 colon
HL-60(TB) leukemia = test system: HL-60(TB) leukemia
HOP-18 NSCLC = test system: HOP-18 NSCLC
HOP-62 NSCLC = test system: HOP-62 NSCLC
HOP-92 NSCLC = test system: HOP-92 NSCLC
HT29 colon = test system: HT29 colon
IGROV1 ovarian = test system: IGROV1 ovarian
K-562 leukemia = test system: K-562 leukemia
KM20L2 colon = test system: KM20L2 colon
LOX IMVI melanoma = test system: LOX IMVI melanoma
LXFL 529 NSCLC = test system: LXFL 529 NSCLC
M14 melanoma = test system: M14 melanoma
M19-MEL melanoma = test system: M19-MEL melanoma
MALME-3M melanoma = test system: MALME-3M melanoma
MOLT-4 leukemia = test system: MOLT-4 leukemia
NCI-H226 lung = test system: NCI-H226 lung
NCI-H23 lung = test system: NCI-H23 lung
NCI-H460 lung = test system: NCI-H460 lung
NCI-H522 lung = test system: NCI-H522 lung
OVCAR-3 ovarian = test system: OVCAR-3 ovarian
OVCAR-4 ovarian = test system: OVCAR-4 ovarian
OVCAR-5 ovarian = test system: OVCAR-5 ovarian
OVCAR-8 ovarian = test system: OVCAR-8 ovarian
RPMI-8226 leukemia = test system: RPMI-8226 leukemia
RXF 393 renal = test system: RXF 393 renal
SF-268 CNS = test system: SF-268 CNS
SF-295 CNS = test system: SF-295 CNS
SF-539 CNS = test system: SF-539 CNS
SK-MEL-2 melanoma = test system: SK-MEL-2 melanoma
SK-MEL-28 melanoma = test system: SK-MEL-28 melanoma
SK-MEL-5 melanoma = test system: SK-MEL-5 melanoma
SK-OV-3 ovarian = test system: SK-OV-3 ovarian
SN12C renal = test system: SN12C renal
SNB-19 CNS = test system: SNB-19 CNS
SNB-75 CNS = test system: SNB-75 CNS
SNB-78 CNS = test system: SNB-78 CNS
SR leukemia = test system: SR leukemia
SW-620 colon = test system: SW-620 colon
TK-10 renal = test system: TK-10 renal
U251 CNS = test system: U251 CNS
UACC-257 melanoma = test system: UACC-257 melanoma
UACC-62 melanoma = test system: UACC-62 melanoma
UO-31 renal = test system: UO-31 renal
XF 498 CNS = test system: XF 498 CNS
A498 renal = test system: A498 renal
KM12 colon = test system: KM12 colon
RXF-631 renal = test system: RXF-631 renal

COc1cc(OC)cc(-c2cc(=O)c3cc4c(cc3[nH]2)OCO4)c1
TGI (786-0 renal): 33 µM
TGI (A549 NSCLC): 45.1 µM
TGI (ACHN renal): > 35.5 µM
TGI (CAKI-1 renal): > 100 µM
TGI (CCRF-CEM leukemia): 4.56 µM
TGI (COLO 205 colon): 0.471 µM
TGI (DLD-1 colon): 36.4 µM
TGI (DMS 114 small cell lung): 0.726 µM
TGI (DMS 273 small cell lung): 3.31 µM
TGI (EKVX NSCLC): > 100 µM
TGI (HCC-2998 colon): 0.787 µM
TGI (HCT-116 colon): 5.5 µM
TGI (HCT-15 colon): 22.8 µM
TGI (HL-60(TB) leukemia): 0.714 µM
TGI (HOP-18 NSCLC): > 75.6 µM
TGI (HOP-62 NSCLC): 17.9 µM
TGI (HOP-92 NSCLC): 21.1 µM
TGI (HT29 colon): > 100 µM
TGI (IGROV1 ovarian): 18.2 µM
TGI (K-562 leukemia): > 50.2 µM
TGI (KM20L2 colon): 0.652 µM
TGI (LOX IMVI melanoma): > 51.1 µM
TGI (LXFL 529 NSCLC): 20.6 µM
TGI (M14 melanoma): > 48.1 µM
TGI (M19-MEL melanoma): > 100 µM
TGI (MALME-3M melanoma): > 100 µM
TGI (MOLT-4 leukemia): > 51 µM
TGI (NCI-H226 lung): 1.06 µM
TGI (NCI-H23 lung): 9.09 µM
TGI (NCI-H460 lung): 3.33 µM
TGI (NCI-H522 lung): 0.593 µM
TGI (OVCAR-3 ovarian): 5.82 µM
TGI (OVCAR-4 ovarian): > 96.1 µM
TGI (OVCAR-5 ovarian): > 63.1 µM
TGI (OVCAR-8 ovarian): 9.55 µM
TGI (RPMI-8226 leukemia): > 58.8 µM
GI50 (RXF 393 renal): 0.219 µM
TGI (RXF 393 renal): 0.518 µM
TGI (SF-268 CNS): 38.6 µM
TGI (SF-295 CNS): 1.74 µM
TGI (SF-539 CNS): 0.498 µM
TGI (SK-MEL-2 melanoma): 4.46 µM
TGI (SK-MEL-28 melanoma): > 71.7 µM
TGI (SK-MEL-5 melanoma): 8.23 µM
TGI (SK-OV-3 ovarian): 4.49 µM
TGI (SN12C renal): 30 µM
TGI (SNB-19 CNS): 72.5 µM
TGI (SNB-75 CNS): 43.7 µM
TGI (SNB-78 CNS): > 89.2 µM
TGI (SR leukemia): 9.54 µM
TGI (SW-620 colon): > 100 µM
TGI (TK-10 renal): 55 µM
TGI (U251 CNS): > 31.9 µM
TGI (UACC-257 melanoma): > 100 µM
TGI (UACC-62 melanoma): > 53.3 µM
TGI (UO-31 renal): > 88.9 µM
TGI (XF 498 CNS): 2.58 µM

CCN(CC)CCCC(C)Nc1c2cc(OC)cc(C)c2nc2c(C)c(Cl)ccc12 (configuration not stated)
TGI (786-0 renal): 3.02 µM
TGI (A498 renal): 6.3 µM
TGI (A549 NSCLC): 3.31 µM
TGI (ACHN renal): 3.09 µM
TGI (CAKI-1 renal): 4.81 µM
TGI (CCRF-CEM leukemia): 3.25 µM
TGI (DLD-1 colon): 2.93 µM
TGI (DMS 273 small cell lung): 3.14 µM
TGI (HCC-2998 colon): 3.03 µM
TGI (HCT-15 colon): 3.2 µM
TGI (HL-60(TB) leukemia): 4.26 µM
TGI (HOP-18 NSCLC): 2.91 µM
TGI (HOP-62 NSCLC): 3.08 µM
TGI (HOP-92 NSCLC): 3.22 µM
TGI (HT29 colon): 3.03 µM
TGI (IGROV1 ovarian): 3.09 µM
TGI (KM12 colon): 2.99 µM
TGI (LXFL 529 NSCLC): 2.98 µM
TGI (M14 melanoma): 3.68 µM
TGI (M19-MEL melanoma): 3.13 µM
TGI (MALME-3M melanoma): 3.52 µM
TGI (MOLT-4 leukemia): 3.26 µM
TGI (NCI-H23 lung): 2.82 µM
TGI (NCI-H460 lung): 3.32 µM
TGI (NCI-H522 lung): 3.06 µM
TGI (OVCAR-3 ovarian): 3.27 µM
TGI (OVCAR-5 ovarian): 3.92 µM
TGI (OVCAR-8 ovarian): 3.19 µM
TGI (RXF 393 renal): 3.54 µM
TGI (RXF-631 renal): 3.23 µM
TGI (SF-295 CNS): 3.71 µM
TGI (SK-MEL-2 melanoma): 3.44 µM
TGI (SK-MEL-28 melanoma): 3.39 µM
TGI (SK-MEL-5 melanoma): 3.28 µM
TGI (SK-OV-3 ovarian): 3.06 µM
TGI (SN12C renal): 2.93 µM
TGI (TK-10 renal): 3.19 µM
TGI (U251 CNS): 3.26 µM
TGI (UACC-257 melanoma): 3.31 µM
TGI (UO-31 renal): 3.1 µM
